Results as given in patent US9879243B2, “Culture medium for cell growth and transfection” (LIFE TECHNOLOGIES CORPORATION, priority 2001, dated 2018).

Assays:
293 cells [1] = test: β-galactosidase expression after transfection (pCMV-SPORT-β-gal, LIPOFECTAMINE 2000) of 293 cells in monolayer culture, 24-well plates; assay type: cell-based, human; details: Table 8, replacement compounds 25 μM in test media, 24 hrs post-transfection
Method: When cultured in suspension, cells were split to 3×10^5 viable cells per ml at each passage. On the week of transfection cells were seeded at 3×10^5 viable cells per ml. After ˜48 hrs of growth (day 2) cells were vortexed for 30 seconds and counted and appropriate volumes used for transfection as described in procedures below.
In addition, the base media comprises 2.4 g/L NaHCO3, 2.98 g/L Hepes, 4 mM L-glutamine and 3 ml/L PLURONIC F-68 (Invitrogen Corp., Carlsbad, Calif.).
The osmolarity is adjusted to from about 275-310 mOsm, preferably about 280 mOsm and the pH is adjusted to from about 7.0 to about 7.45 preferably about 7.4 respectively.
Three wells were set up for each treatment. A volume of media corresponding to 3×10^6 viable cells was centrifuged. The supernatant was removed and the cells re-suspended in 600 μl test media. Each well of a 24 well plate received 200 μl of the re-suspended cells.
To prepare the nucleic acid for the transfection experiments, 93 μl test media+3 μl DNA+24 μl LIPOFECTAMINE 2000 were combined in a microfuge tube and complexed for 30 minutes. A 40 μl aliquot of complex was added to each well. 250 μl test media was added to each well five hours after addition of complex. The final cell concentration was 1×10^6 viable cells per well; the final DNA concentration was 1 μg per 1×10^6 viable cells and the final LIPOFECTAMINE 2000 concentration was 8 μl per 1×10^6 viable cells.
24 hrs post-transfection, samples were collected for β-galactosidase quantitation. The contents of duplicate wells were pooled (i.e. ˜2×10^6 cells for the assay) for each sample and transferred to a microfuge tube. The cells were centrifuged, the supernatant was removed and the cells were re-suspended in 1 ml of D-PBS. The cells were pelleted a second time and re-suspended in 1 ml of D-PBS. The samples were then stored at −70° C. Prior to the assay for β-galactosidase, samples were freeze-thawed a total of five times.
293 cells were grown in monolayer culture in the presence of the various replacement compounds indicated and transfection experiments performed as described above. The results are shown in Table 8 and the values are β-galactosidase activity expressed as nanograms of β-galactosidase per 2×10^6 cells. A comparison was made between the transfection efficiency of DNA complexes formed in D-MEM medium and DNA complexes formed in test medium. […]
For cells transfected in 24-well plates, cells densities used were 1×10^6 viable cells per well.

293 cells [2] = test: Effect of replacement compounds on the growth of 293 cells in 293 SFM without transferrin, three passages; assay type: cell-based, human; details: third passage
Method: Semi-confluent adherent cultures of 293 Cells (ATCC, CRL 1573) are readily adapted to suspension culture. The cells are first detached with a solution of Trypsin-EDTA (0.05% Trypsin, 0.53 mM Na4EDTA), and then resuspended in conventional medium supplemented with 10% FBS to inhibit the trypsin. The resuspended cells are centrifuged at 200×g for five minutes.
The initial seeding density of the 293 cells after conversion to suspension culture is 1×10^6 cells/mL. The cells are shaken on a rotary shaker at 150 rpm in a 37° C. incubator equilibrated with 8% CO2-92% air. […] Because 293 cells have a tendency to aggregate, the cells can be vortexed vigorously for approximately 45 seconds to obtain a predominantly single cell suspension at the time of passaging and counting. After several passages in suspension culture, the maximum achievable density can be determined.
For replacement compound evaluation, 293 cells were established in 125 mL shaker flasks at an initial viable seeding density of 2×10^5 cells/mL in a final volume of 20 mL. All cultures were maintained at 37° C. in humidified air containing 8% CO2. To eliminate transferrin carry-over effects, cells were subcultured at 4 day intervals for a total of three passages. At each subculturing, cells were seeded at a density of 2×10^5 cells/mL. Positive control cultures contained 5 μg/mL human holo-transferrin while negative control cultures were established in the absence of either transferrin or replacement compound. Replacement compound stocks were prepared at 0.1M-0.2M in ddH2O and solubilized when necessary using 5N NaOH or HCl. Iron complexes were established using 0.2 M replacement compound and iron stocks mixed 1:1 (v/v) and incubated for 5-10 minutes at 22° C. All solutions containing replacement compounds were filter sterilized using a 0.22 μm Millex-GV filter prior to addition to transferrin and serum-free media.
Except where noted, replacement compounds were evaluated either alone or in combination with ferric chloride or ferrous sulfate at 25 μM, 50 μM and 100 μM. When used in combination, the replacement compounds were used in equimolar concentration with iron ions. Values in Table 4 represent the mean percentage of control growth for duplicate cultures determined at the third passage.
When added to the medium formulation uncomplexed, the replacement compound is listed alone, when added as a complex with a transition metal, the source of the transition metal is listed with the replacement compound.

Sp2/0 cells = test: Effect of replacement compounds on the growth of Sp2/0 cells in CD Hybridoma medium without transferrin, three passages; assay type: cell-based; details: third passage
Method: The ability of replacement compounds to support cellular growth in the absence of transferrin was evaluated using Sp2/0 cells maintained in CD Hybridoma medium (Invitrogen Corporation, Carlsbad, Calif.).
Stock cultures containing 5 μg/mL human holo-transferrin were prepared in CD Hybridoma medium. For replacement compound evaluation, Sp2/0 cells were established at an initial viable cell density of 0.5×10^5 cells/mL in stationary culture using 75 cm^2 tissue culture flasks in a final volume of 20 mL. All cultures were maintained at 37° C. in humidified air containing 8% CO2. To eliminate transferrin carry-over effects, cells were subcultured at the same seeding density at 4 day intervals for a total of three passages. Positive control cultures contained 5 μg/mL human holo-transferrin while negative control cultures were established in the absence of either transferrin or replacement compound. Replacement compound stocks were prepared at 0.1M-0.2M in ddH2O and solubilized when necessary using 5N NaOH or HCl. Iron complexes were established using 0.2M replacement compound and iron stocks mixed 1:1 (v/v) and incubated for 5-10 minutes at 22° C. All solutions containing replacement compounds were filter sterilized using a 0.22 μm Millex-GV filter prior to addition to transferrin and serum-free media.
Except where otherwise noted, replacement compounds were evaluated either alone or in combination with ferric chloride or ferrous sulfate at 25 μM, 50 μM and 100 μM. Values in the table represent the mean percentage of control growth for duplicate cultures determined at the third passage.
When added to the medium formulation un-complexed, the replacement compound is listed alone, when added as a complex with a transition metal, the source of the transition metal is listed with the replacement compound.

CHO cells = test: Effect of replacement compounds on the growth of CHO cells in CD CHO medium without transferrin, three passages; assay type: cell-based, Chinese hamster; details: third passage
Method: The ability of replacement compounds to support cellular growth in the absence of transferrin was evaluated using CHO cells maintained in CD CHO medium (Invitrogen Corporation, Carlsbad, Calif., the formulation of which is described in WO 98/08934). Stock cultures containing 5 μg/mL human holo-transferrin were prepared in CD CHO medium. For replacement compound evaluation, CHO cells were established in 125 mL shaker flasks at an initial viable seeding density of 1×10^5 cells/mL in a final volume of 20 mL. All cultures were maintained at 37° C. in humidified air containing 8% CO2. To eliminate transferrin carry-over effects, cells were subcultured at 4 day intervals for a total of three passages. Positive control cultures contained 5 μg/mL human holo-transferrin while negative control cultures were established in the absence of either transferrin or replacement compound. Replacement compound stocks were prepared at 0.1M-0.2M in ddH2O and solubilized when necessary using 5N NaOH or HCl. Iron complexes were established using 0.2M replacement compound and iron stocks mixed 1:1 (v/v) and incubated for 5-10 minutes at 22° C. All solutions containing replacement compounds were filter sterilized using a 0.22 μm Millex-GV filter prior to addition to transferrin and serum-free media.
Except where noted, replacement compounds were evaluated either alone or in combination with ferric chloride or ferrous sulfate at 25 μM, 50 μM and 100 μM. Values in the table represent the mean percentage of control growth for duplicate cultures determined at the third passage.
The ability of various replacement compounds to substitute for transferrin in the culture of CHO cells was determined. When added to the medium formulation un-complexed, the replacement compound is listed alone, when added as a complex with a transition metal, the source of the transition metal is listed with the metal binding compound.

[3] = 25 μM, control 5 μg/mL human holo-transferrin, iron equimolar where combined
[4] = 50 μM, control 5 μg/mL human holo-transferrin
[5] = 100 μM, control 5 μg/mL human holo-transferrin
[6] = 25 μM, control 5 μg/mL human holo-transferrin

Compound	β-galactosidase activity; D-MEM used for complexing, Test media to re-suspend cells (293 cells [1])	β-galactosidase activity; Test Media used for complexing and to re-suspend cells (293 cells [1])	mean percentage of control growth (293 cells [2]; 5 μM)	mean percentage of control growth (293 cells [2]; 10 μM)	mean percentage of control growth (293 cells [2]; 20 μM)	mean percentage of control growth (Sp2/0 cells; 5 μM)	mean percentage of control growth (Sp2/0 cells; 10 μM)	mean percentage of control growth (Sp2/0 cells; 20 μM)	mean percentage of control growth (CHO cells; 5 μM)	mean percentage of control growth (CHO cells; 10 μM)	mean percentage of control growth (CHO cells; 20 μM)	mean percentage of control growth (293 cells [2]; [3])	mean percentage of control growth (293 cells [2]; [4])	mean percentage of control growth (293 cells [2]; [5])	mean percentage of control growth (Sp2/0 cells; [6])	mean percentage of control growth (Sp2/0 cells; 50 μM)	mean percentage of control growth (Sp2/0 cells; 100 μM)	mean percentage of control growth (CHO cells; [6])	mean percentage of control growth (CHO cells; 50 μM)	mean percentage of control growth (CHO cells; 100 μM)
Human Transferrin (as control): human transferrin used as control replacement compound in test media	326 nanograms of β-galactosidase per 2×10^6 cells	3279 nanograms of β-galactosidase per 2×10^6 cells																		
Deferoxamine Mesylate•Ferric Chloride	154 nanograms of β-galactosidase per 2×10^6 cells	301 nanograms of β-galactosidase per 2×10^6 cells	101 percentage of control growth	120 percentage of control growth	127 percentage of control growth	0 percentage of control growth	0 percentage of control growth	0 percentage of control growth	50 percentage of control growth	74 percentage of control growth	52 percentage of control growth									
O=S(=O)([O-])[O-].[Fe+2].[O-][n+]1cccc(O)c1 [3-Hydroxypyridine-N-Oxide•Ferrous Sulfate]	176 nanograms of β-galactosidase per 2×10^6 cells	317 nanograms of β-galactosidase per 2×10^6 cells										104 percentage of control growth	58 percentage of control growth	0 percentage of control growth						
Ferrous Gluconate•Ascorbic Acid Phosphate	116 nanograms of β-galactosidase per 2×10^6 cells	275 nanograms of β-galactosidase per 2×10^6 cells										86 percentage of control growth	109 percentage of control growth	101 percentage of control growth	92 percentage of control growth	94 percentage of control growth	93 percentage of control growth	91 percentage of control growth	61 percentage of control growth	28 percentage of control growth
Cc1occc(=O)c1O [3-Hydroxy-2-Methyl-4-Pyrone (Maltol), 3-Hydroxy-2-Methyl-4-Pyrone]	103 nanograms of β-galactosidase per 2×10^6 cells	52 nanograms of β-galactosidase per 2×10^6 cells										0 percentage of control growth	28 percentage of control growth	81 percentage of control growth	0 percentage of control growth	0 percentage of control growth	0 percentage of control growth			
[Cl][Fe]([Cl])[Cl].c1ccc(Nc2ccccn2)nc1 [2,2-Dipyridylamine•Ferric Chloride]	347 nanograms of β-galactosidase per 2×10^6 cells	459 nanograms of β-galactosidase per 2×10^6 cells										118 percentage of control growth	96 percentage of control growth	101 percentage of control growth				40 percentage of control growth	48 percentage of control growth	65 percentage of control growth
Diethylenetriamine Penta-Acetic Acid•Ferric Chloride	131 nanograms of β-galactosidase per 2×10^6 cells	574 nanograms of β-galactosidase per 2×10^6 cells										79 percentage of control growth	96 percentage of control growth	102 percentage of control growth						
